What follows are compounds tested against Cannabinoid receptor 1 (Homo sapiens, UniProt P21554) (assay: Antagonist activity at CB1 receptor (unknown origin)).
Cannabinoid receptor 1, sequence (P21554 whole entry): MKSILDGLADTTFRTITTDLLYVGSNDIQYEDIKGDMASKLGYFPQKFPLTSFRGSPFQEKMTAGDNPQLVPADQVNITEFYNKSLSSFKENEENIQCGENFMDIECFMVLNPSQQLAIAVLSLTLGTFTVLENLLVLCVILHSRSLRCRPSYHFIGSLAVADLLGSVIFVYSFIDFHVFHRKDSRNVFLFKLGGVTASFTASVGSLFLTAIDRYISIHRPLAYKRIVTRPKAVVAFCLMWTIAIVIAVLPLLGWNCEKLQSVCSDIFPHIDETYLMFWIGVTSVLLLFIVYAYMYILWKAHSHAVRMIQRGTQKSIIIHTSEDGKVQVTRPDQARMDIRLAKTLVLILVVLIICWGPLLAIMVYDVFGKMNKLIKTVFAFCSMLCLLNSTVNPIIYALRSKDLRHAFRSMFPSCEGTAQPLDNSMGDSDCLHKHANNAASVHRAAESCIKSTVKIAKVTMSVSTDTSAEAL
Compound `Cc1c(C(=O)NN)nn(-c2ccc(Cl)cc2Cl)c1-c1ccc(Cl)cc1` has a Ki of 374 nM. Compound `CCCn1nc(C(=O)NN2CCCCC2)c(C)c1-c1ccccc1` has a Ki of 3560 nM. Compound `COCc1c(C(=O)NC2CCCCC2)nn(-c2ccc(Cl)cc2Cl)c1C1C2(C)CCC(C2)C1(C)C` (stereo not drawn) has a Ki of 241 nM. Compound `Cc1c(C(=O)NCC23CC4CC(CC(C4)C2)C3)nn(CCCCCCl)c1-c1ccccc1` has a Ki of 6 nM. In the case of `Cc1c(C(=O)Nc2ccc(-c3ccsc3)cc2)nn(CCCCCCl)c1-c1ccccc1`, the Ki is reported as 19.8 nM. With `COc1ccc(-c2c(F)c(C(=O)NN3CCCCC3)nn2-c2ccc(Cl)cc2Cl)cc1` the Ki was 18.2 nM. `Cc1c(C(=O)NN2CCCCC2)nn(-c2ccc(Cl)cc2Cl)c1-c1ccc(Br)cc1` gave a Ki of 76.7 nM. `CCCCCCCn1nc(C(=O)NN2CCCCC2)cc1-c1ccccc1` was tested, and the Ki was 327 nM. `Cc1c(C(=O)NCCO)nn(-c2ccc(Cl)cc2Cl)c1-c1ccc(Br)cc1` gave a Ki of 1120 nM. `Cc1c(C(=O)NN2CCCCC2)nn(C)c1-c1ccc(Cl)cc1` was tested, and the Ki was 34700 nM. `Cc1c(C(=O)N(C)c2ccccc2)nn(-c2ccc(Cl)cc2Cl)c1-c1ccc(Br)cc1` showed a Ki of 31.1 nM. Compound `Cc1c(NC(=O)N2CCCCC2)nn(-c2ccc(Cl)cc2Cl)c1-c1ccc(Br)cc1` has a Ki of 47 nM. `Cc1ccc(Cn2nc(C(=O)NC3CC4CCC3(C)C4(C)C)c(C)c2-c2ccc(Cl)c(C)c2)cc1` (stereo not drawn) was tested, and the Ki was 400 nM. `O=C(NN1CCCCC1)c1nn(-c2ccc(Cl)cc2Cl)c2c1CCCc1c-2cccc1[N+](=O)[O-]` gave a Ki of 100 nM. `Cc1c(C(=O)NN2CCCCC2)nn(-c2ccc(Cl)cc2Cl)c1-c1ccc(N)cc1` was tested, and the Ki was 81.5 nM. `Cc1c(C(=O)NN2CCOCC2)nn(-c2ccc(Cl)cc2Cl)c1-c1ccc(I)cc1` showed a Ki of 13.2 nM. Compound `Cc1c(C(=O)NN2CCOCC2)nn(-c2ccc(Cl)cc2Cl)c1-c1ccccc1Br` has a Ki of 11.7 nM. Work on `O=C(NC1CCCCC1)c1nn(-c2ccc(Cl)cc2Cl)c(-c2ccc(Br)cc2)c1CO` yielded a Ki of 6 nM. `CCCCCn1nc(C(=O)NN2CCCCC2)cc1-c1ccccc1` was tested, and the Ki was 256 nM. Work on `CCCCCCCn1nc(C(=O)NN2CCCCC2)c(C)c1-c1ccccc1` yielded a Ki of 203 nM. For `Cc1c(C(=O)NN2CCCCC2)nn(C2CCCCC2)c1-c1ccccc1`, the Ki was 605 nM. Compound `CCCCCn1nc(C(=O)NN2CCCCC2)c(C)c1-c1ccc(Br)cc1` has a Ki of 81.8 nM. Compound `O=C(NN1CCCCC1)c1nn(-c2ccc(Cl)cc2Cl)c2c1CCCc1cc([N+](=O)[O-])ccc1-2` has a Ki of 63 nM.

Reference: ChEMBL document CHEMBL3046337, “Activity landscape analysis, CoMFA and CoMSIA studies of pyrazole CB1 antagonists” (Med Chem Res, 2013)
